Tested on: cucumber powdery mildew fungus (Sphaerotheca fuliginea, a QoI-resistant strain, cytochrome b position 143 glycine to alanine)
Test: Test Example 6 and Comparative Test Example: control of cucumber powdery mildew (QoI-resistant strain), foliar spray on cucumber
Assay type: in vivo
Settings: 500 ppm water dilution sprayed on cucumber (SAGAMI HANJIRO); inoculated after air-drying; investigated after 8 days in greenhouse

Cc1cc(-c2cccs2)ccc1OCc1ccccc1-n1nnn(C)c1=O [1-{[2-[2-methyl-4-(thiophen-2-yl)phenoxy]methyl]phenyl}-4-methyl-1,4-dihydrotetrazol-5-one]
area of lesion spots on the treated plant relative to that on an untreated plant: ≥ 70%

— patent US9730448B2, “Tetrazolinone compound and use of same” (Sumitomo Chemical Company, Limited, priority 2013, dated 2017)
